US20260183405A1, “SMALL MOLECULE-DRUG-CONJUGATES CLEAVABLE IN A TUMOR MICROENVIRONMENT” (priority 2022, published 2026)
Like-named read-outs stand apart in the source and are kept apart here.

Key:
[1] = Pharmacokinetics in rat after intravenous administration; assay type: in vivo; details: plasma, male rats, intravenous bolus 0.5 mg/kg; for clearance: read-out: CL plasma; for Vd: read-out: VSS
Experimental: Male rats (n=3) were given an intravenous 0.5 mg/kg bolus dose of test article dissolved in plasma with 1% DMSO and 2% ethanol. Serial blood samples were collected up to 24 hours post-dose. Plasma was harvested from blood samples and stored frozen until sample analysis. Test article plasma concentrations were analyzed by LC/MS/MS. Pharmacokinetic parameters were calculated using non-compartmental analysis.

[2] = test system: NCI-H292; experiment: Cytotoxicity in vitro in the presence and absence of elastase (MTT assay); assay type: cell-based; details: NCI-H292 cells, 72 h incubation
Experimental: (§1) Cultivation of cells was performed according to standard procedures with the media recommended by the provider. The cells, in a total volume of 100 μL, were seeded in a 96-well plate with a white bottom (#3610). After a 24 h incubation period at 37° C. and 5% CO2, the medium was exchanged by adding 90 μL fresh medium. The treatment started by adding the test compound in 10 μL of culture medium to the cells in triplicates. Concentrations ranging from 10^−5 M to 10^−13 M were chosen. Two identically treated sets of samples were prepared. One set was treated with the test compound alone, whereas to the second set the compound and 10 nM elastase (NE) was added followed by a 72 h incubation period at 37° C. and 5% CO2. The proliferation was detected using the MTT assay (ATCC). At the end of the incubation period the MTT reagent was added to all samples for 4h. Lysis of the cells followed by addition of the detergent was done overnight. The formed dye was detected at 570 nm. The proliferation of untreated but otherwise identically handled cells was defined as the 100% value. The dose response curves allowed the determination of the respective IC50 values. […]

[3] = test system: HT29; experiment: as above; assay type: cell-based; details: HT29 cells, 72 h incubation
Experimental: as §1

[4] = test system: 786-O; experiment: as above; assay type: cell-based; details: 786-O cells, 72 h incubation
Experimental: as §1

[5] = test system: SUM149PT; experiment: as above; assay type: cell-based; details: SUM149PT cells, 72 h incubation
Experimental: as §1

[6] = compound alone, read-out: IC50 without neutrophil elastase
[7] = with 10 nM elastase (NE), read-out: IC50 with neutrophil elastase

| Compound | AUC [1] [µg·h/mL] | half-life [1] [h] | clearance [1] [L/h/kg] | Vd [1] [L/kg] | IC50 [2, 6] [µM] | IC50 [2, 7] [µM] | IC50 [3, 6] [µM] | IC50 [3, 7] [µM] | IC50 [4, 6] [µM] | IC50 [4, 7] [µM] | IC50 [5, 6] [µM] | IC50 [5, 7] [µM] |
| --- | --- | --- | --- | --- | --- | --- | --- | --- | --- | --- | --- | --- |
| CCc1c2c(nc3ccccc13)-c1cc3c(c(=O)n1C2)COC(=O)[C@@]3(CC)OC(=O)[C@@H](NC(=O)[C@@H]1CCCN1C(=O)[C@H](CC(=O)[O-])NC(=O)CCOCCOCCOCCNC(=O)[C@H](CCCCNC(=O)CCOCCOCCOCCNC(=O)CCC(=O)Nc1cccc2c(C(=O)NCC(=O)N3CC(F)(F)C[C@H]3C#N)ccnc12)NC(=O)CCOCCOCCOCCNC(=O)CCC(=O)Nc1cccc2c(C(=O)NCC(=O)N3CC(F)(F)C[C@H]3C#N)ccnc12)C(C)C.[Na+] [Compound 20, sodium (4S)-4,11-diethyl-3,14-dioxo-3,4,12,14-tetrahydro-1H-pyrano[3′,4′:6,7]indolizino[1,2-b]quinolin-4-yl 1-[(2S)-15-{[N2,N6-bis(17-{[4-({2-[(2S)-2-cyano-4,4-difluoropyrrolidin-1-yl]-2-oxoethyl}carbamoyl)quinolin-8-yl]amino}-14,17-dioxo-4,7,10-trioxa-13-azaheptadecanan-1-oyl}-L-lysyl]amino)-2-(carboxylatomethyl)-4-oxo-7,10,13-trioxa-3-azapentadecanan-1-oyl]-L-prolyl-L-valinate] | 1 to 10 | 0.5 to 1 | 0.03 to 0.3 | 0.1 to 0.3 | 0.1 to 0.999 | 0.001 to 0.0099 | > 1 | 0.01 to 0.099 | > 1 | 0.001 to 0.0099 |  |  |
| CCCNC(=O)Nc1cccc(S(=O)(=O)Nc2cccc([C@@H](CC(=O)O)NC(=O)Nc3ccc(NC(=O)NCCOCCOCCOCCC(=O)NCCCC[C@H](NC(=O)CCOCCOCCOCCNC(=O)Nc4ccc(NC(=O)N[C@H](CC(=O)O)c5cccc(NS(=O)(=O)c6cccc(NC(=O)NCCC)c6)c5)cc4)C(=O)NCCOCCOCCOCCC(=O)N[C@@H](CC(N)=O)C(=O)N4CCC[C@H]4C(=O)N[C@H](C(=O)NCCCN(C(=O)CO)[C@@H](c4cc(-c5cc(F)ccc5F)cn4Cc4ccccc4)C(C)(C)C)C(C)C)cc3)c2)c1 [Compound 18] | 100 to 500 | 10 to 40 | 0.0012 to 0.03 | 0.01 to 0.1 |  |  |  |  |  |  |  |  |
| CCCNC(=O)Nc1cccc(S(=O)(=O)Nc2cccc([C@@H](CC(=O)O)NC(=O)Nc3ccc(NC(=O)NCCOCCOCCOCCC(=O)N[C@@H](CC(=O)O)C(=O)N4CCC[C@H]4C(=O)N[C@H](C(=O)NCCCN(C(=O)CO)[C@@H](c4cc(-c5cc(F)ccc5F)cn4Cc4ccccc4)C(C)(C)C)C(C)C)cc3)c2)c1 [Compound 25, disodium 1-[(2S)-2-(carboxylatomethyl)-17-{4-[({(1R)-2-carboxylato-1-[3-({3-[(propylcarbamoyl)amino]benzene-1-sulfonyl}amino)phenyl]ethyl}carbamoyl)amino]anilino}-4,17-dioxo-7,10,13-trioxa-3,16-diazaheptadecanan-1-oyl]-L-prolyl-N-{3-[({1R)-1-[1-benzyl-4-(2,5-difluorophenyl)-1H-pyrrol-2-yl]-2,2-dimethylpropyl}(hydroxyacetyl)amino]propyl}-L-valinamide] |  |  |  |  | > 1 | 0.01 to 0.099 | > 1 | 0.001 to 0.0099 |  |  | > 1 | 0.001 to 0.0099 |
| CC(C)[C@H](NC(=O)[C@@H]1CCCN1C(=O)[C@H](CC(=O)O)NC(=O)CCOCCOCCOCCNC(=O)CCC(=O)Nc1nnc(S(N)(=O)=O)s1)C(=O)N=[S@](C)(=O)Cc1cc2nc(c1)OCCCOc1cc(F)ccc1-c1cc(ncc1F)N2 (relative stereo) [Compound 10, sodium 1-{(2S)-2-(carboxylatomethyl)-4,17,20-trioxo-20-[(5-sulfamoyl-1,3,4-thiadiazol-2-yl)amino]-7,10,13-trioxa-3,16-diazaicosanan-1-oyl}-L-prolyl-N—[(R*)—{[15,19-difluoro-3,4-dihydro-2H,11H-10,6-(azeno)-12,16-(metheno)-1,5,11,13-benzodioxadiazacyclooctadecin-8-yl]methyl}(methyl)oxo-lambda6-sulfanylidene]-L-valinamide] |  |  |  |  | 0.1 to 0.999 | 0.001 to 0.0099 | > 1 | 0.001 to 0.0099 | > 1 | 0.001 to 0.0099 | 0.1 to 0.999 | 0.001 to 0.0099 |
| CCCNC(=O)Nc1cccc(S(=O)(=O)Nc2cccc([C@@H](CC(=O)O)NC(=O)Nc3ccc(NC(=O)NCCOCCOCCOCCC(=O)N[C@@H](CC(=O)O)C(=O)N4CCC[C@H]4C(=O)N[C@H](C(=O)OC(C)(C)CCNC(=O)[C@H](Cc4ccccc4)NC(=O)[C@H](C)[C@@H](OC)[C@@H]4CCCN4C(=O)C[C@@H](OC)[C@H]([C@@H](C)CC)N(C)C(=O)[C@@H](NC(=O)[C@H](C(C)C)N(C)C)C(C)C)C(C)C)cc3)c2)c1 [Compound 32] |  |  |  |  | 0.01 to 0.099 | 0.001 to 0.0099 | 0.01 to 0.099 | 0.001 to 0.0099 | 0.1 to 0.999 | 0.01 to 0.099 | 0.01 to 0.099 | 0.001 to 0.0099 |
| CCc1c2c(nc3ccccc13)-c1cc3c(c(=O)n1C2)COC(=O)[C@@]3(CC)OC(=O)[C@@H](NC(=O)[C@@H]1CCCN1C(=O)[C@H](CC(=O)[O-])NC(=O)CCOCCOCCOCCNC(=O)CCCC(=O)NCCCC[C@H](NC(=O)CCOCCOCCOCCNC(=O)CCC(=O)Nc1cccc2c(C(=O)NCC(=O)N3CC(F)(F)C[C@H]3C#N)ccnc12)C(=O)NCCCCCCCC(=O)[O-])C(C)C.[Na+].[Na+] [Compound 21, disodium (4S)-4,11-diethyl-3,14-dioxo-3,4,12,14-tetrahydro-1H-pyrano[3′,4′:6,7]indolizino[1,2-b]quinolin-4-yl 1-[(2S,27S)-27-[(7-carboxylatoheptyl)carbamoyl]-2-(carboxylatomethyl)-45-{[4-({2-[(2S)-2-cyano-4,4-difluoropyrrolidin-1-yl]-2-oxoethyl}carbamoyl)quinolin-8-yl]amino}-4,17,21,29,42,45-hexaoxo-7,10,13,32,35,38-hexaoxa-3,16,22,28,41-pentaazapentatetracontanan-1-oyl]-L-prolyl-L-valinate] | 1 to 10 | 0.5 to 1 | 0.03 to 0.3 | 0.1 to 0.3 | 0.1 to 0.999 | 0.001 to 0.0099 | > 1 | 0.01 to 0.099 | > 1 | 0.001 to 0.0099 |  |  |
| CCc1c2c(nc3ccccc13)-c1cc3c(c(=O)n1C2)COC(=O)[C@@]3(CC)OC(=O)[C@@H](NC(=O)[C@@H]1CCCN1C(=O)[C@H](CC(=O)O)NC(=O)CCOCCOCCOCCNC(=O)NCCCC[C@H](NC(=O)N[C@@H](CCC(=O)O)C(=O)O)C(=O)O)C(C)C [Compound 5, tetrasodium (4S)-4,11-diethyl-3,14-dioxo-3,4,12,14-tetrahydro-1H-pyrano[3′,4′:6,7]indolizino[1,2-b]quinolin-4-yl 1-[(2S,23S,27S)-23,27,29-tricarboxylato-2-(carboxylatomethyl)-4,17,25-trioxo-7,10,13-trioxa-3,16,18,24,26-pentaazanonacosanan-1-oyl]-L-prolyl-L-valinate] | 1 to 10 | 1 to 5 | 0.03 to 0.3 | 0.1 to 0.3 |  |  |  |  |  |  |  |  |
| CCCNC(=O)Nc1cccc(S(=O)(=O)Nc2cccc([C@@H](CC(=O)O)NC(=O)Nc3ccc(NC(=O)NCCOCCOCCOCCC(=O)NCCCC[C@H](NC(=O)CCOCCOCCOCCNC(=O)Nc4ccc(NC(=O)N[C@H](CC(=O)O)c5cccc(NS(=O)(=O)c6cccc(NC(=O)NCCC)c6)c5)cc4)C(=O)NCCOCCOCCOCCC(=O)N[C@@H](CC(=O)O)C(=O)N4CCC[C@H]4C(=O)N[C@H](C(=O)N[C@@H](CCN(C(=O)CO)[C@@H](c4cc(-c5cc(F)ccc5F)cn4Cc4ccccc4)C(C)(C)C)C(=O)NC)C(C)C)cc3)c2)c1 [Compound 27] | 100 to 500 | 10 to 40 | 0.0012 to 0.03 | 0.01 to 0.1 |  |  |  |  |  |  |  |  |
| CCc1c2c(nc3ccccc13)-c1cc3c(c(=O)n1C2)COC(=O)[C@@]3(CC)OC(=O)[C@@H](NC(=O)[C@@H]1CCCN1C(=O)[C@H](CC(=O)O)NC(=O)CCOCCOCCOCCNC(=O)CCC(=O)Nc1cccc2c(C(=O)NCC(=O)N3CC(F)(F)C[C@H]3C#N)ccnc12)C(C)C [Compound 6, sodium (4S)-4,11-diethyl-3,14-dioxo-3,4,12,14-tetrahydro-1H-pyrano[3′,4′:6,7]indolizino[1,2-b]quinolin-4-yl 1-[(2S)-2-(carboxylatomethyl)-20-{[4-({2-[(2S)-2-cyano-4,4-difluoropyrrolidin-1-yl]-2-oxoethyl}carbamoyl)quinolin-8-yl]amino}-4,17,20-trioxo-7,10,13-trioxa-3,16-diazaicosanan-1-oyl]-L-prolyl-L-valinate] | < 1 | < 0.5 | > 0.3 | 0.3 to 0.9 |  |  |  |  |  |  |  |  |
